# Assay results taken from EPA's ToxValDB 9.5 (doi:10.2903/j.efsa.2008.125r).
# Tests used:
# [1] = test system: Anas platyrhynchos; conditions: for LD50: oral, mortality
# [2] = test system: Apis mellifera; conditions: acute; duration: 48 hours; oral; unspecified; mortality
# [3] = test system: Canidae; conditions: chronic; duration: 1 years; oral; Dog Other; hematological
# [4] = test system: Colinus virginianus; conditions: for LD50: acute, oral, mortality
# [5] = test system: Coturnix japonica; conditions: acute, oral, mortality
# [6] = test system: Daphnia magna; conditions: chronic/long-term; duration: 21 days; reproduction
# [7] = test system: Oncorhynchus mykiss; conditions: acute; duration: 96 hours; mortality
# [8] = test system: Rattus norvegicus
# [9] = test system: Tagia sp.; conditions: acute; duration: 14 days; mortality
# [10] = test system: Typhlodromus pyri
smiles,measurement,setting,value
CCCCCCCCCCCCC1=C(OC(C)=O)C(=O)c2ccccc2C1=O [Acequinocyl],LD50,"[1]; acute, unspecified",> 1940 mg/kg
same,NOEL,[1]; reproductive,7.48 mg/kg
same,LD50,"[1]; short-term, feed",> 1340 mg/kg
same,LD50,[2],> 100 µg/piece
same,NOAEL,[3],5 mg/kg-day
same,LD50,[4]; diet,> 159 mg/kg
same,LD50,[4],> 300 mg/kg
same,NOEL,[4]; reproduction developmental,217 mg/kg-day
same,LD50,[5]; diet,> 847 mg/kg
same,LD50,[5],> 1940 mg/kg
same,NOEC,[6],0.00098 mg/L
same,LC50,[7],65 mg/L
same,NOAEL,"[8]; acute, oral, hematological",8 mg/kg-day
same,LD50,"[8]; acute, oral, mortality",> 4860 mg/kg
same,NOAEL,"[8]; chronic, duration: 2 years, clinical signs",2.3 mg/kg-day
same,NOAEL,"[8]; reproduction developmental, clinical signs",6.9 mg/kg-day
same,LC50,[9],> 1000 mg/kg
same,LEL,"[10]; acute, duration: 7 days, mortality",300 g/ha
same,LEL,"[10]; not reported, reproduction",300 g/ha
